According to patent publication US12357711B2, “PSMA binding dual mode radiotracer and therapeutic” (Technische Universität München, priority 2019, dated 2025):
Where “and” joins values, the source holds several entries; their conditions need not be identical. Equal entries are not always repeated. Where two headings read alike, the source gives them in different places.

What was measured:
human serum albumin = target: T1, human serum albumin (Homo sapiens, UniProt P02768); assay: HSA binding on Chiralpak HSA column; format: in vitro ADME; conditions: Chiralpak HSA column (50 × 3 mm, 5 μm)
T1 construct: purchased H13H-2433
T1 sequence (P02768 25-609): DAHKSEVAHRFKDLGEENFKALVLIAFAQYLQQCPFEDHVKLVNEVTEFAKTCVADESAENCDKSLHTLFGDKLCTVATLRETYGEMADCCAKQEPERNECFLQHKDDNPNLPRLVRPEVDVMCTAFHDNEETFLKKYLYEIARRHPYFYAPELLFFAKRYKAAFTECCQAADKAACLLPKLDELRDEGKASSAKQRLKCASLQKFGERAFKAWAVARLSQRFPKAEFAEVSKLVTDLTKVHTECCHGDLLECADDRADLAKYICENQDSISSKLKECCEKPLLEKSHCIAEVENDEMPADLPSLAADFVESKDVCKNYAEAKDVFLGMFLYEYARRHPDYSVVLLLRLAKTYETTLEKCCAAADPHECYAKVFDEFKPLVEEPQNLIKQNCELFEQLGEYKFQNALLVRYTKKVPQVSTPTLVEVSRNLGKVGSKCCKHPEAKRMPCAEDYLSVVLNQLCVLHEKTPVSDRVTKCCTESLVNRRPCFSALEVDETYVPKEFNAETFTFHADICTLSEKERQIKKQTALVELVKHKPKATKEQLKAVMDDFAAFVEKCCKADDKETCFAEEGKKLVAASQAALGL
Method: The mobile phase (A: NH4OAc, 50 mM in water, pH 7 and B: isopropanol) was freshly prepared for each experiment and only used for one day. The column was kept at room temperature and each run was stopped after detection of the signal to reduce the acquisition time. All substances were dissolved in a 0.5 mg/ml concentration in 50% 2-propanol and 50% 50 mM pH 6.9 ammonium acetate buffer. […] All nine reference substances were injected consecutively to establish a non-linear regression with Origin Pro 2016G.

[1] = test system: LNCaP tumor-bearing SCID mice; assay: Biodistribution at 1 h p.i. with competition (co-injected PMPA); format: in vivo; conditions: co-injected with PMPA (8 mg/kg)
Method: FIG. 11: Biodistribution [% ID/g] of ^18F-rhPSMAs co-injected with PMPA (8 mg/kg) at 1 h p.i in LNCaP tumor-bearing SCID mice. Data are expressed as mean±SD (n=3).

[2] = test system: PSMA-positive LNCaP cells; assay: Internalization in LNCaP cells, normalized to ([125I]I-BA)KuE; format: cell-based; conditions: LNCaP cells, 1 hour, 37° C.
Method: Data is corrected for non-specific binding ([…]) and expressed as mean±SD (n=3).
Subsequent to the removal of the culture medium, the cells were washed once with 500 μL DMEM-F12 (5% BSA) and left to equilibrate for at least 15 min at 37° C. in 200 μL DMEM-F12 (5% BSA). Each well was treated with either 25 μL of either DMEM-F12 (5% BSA) or a 100 μM PMPA solution for blockade. Next, 25 μL of the ^68Ga/^18F-labeled PSMA inhibitor (5.0 nM) was added and the cells incubated at 37° C. for 60 min. The experiment was terminated by placing the 24-well plate on ice for 3 min and consecutive removal of the medium. Each well was rinsed with 250 μL HBSS and the fractions from these first two steps combined, representing the amount of free radioligand. Removal of surface bound activity was accomplished by incubation of the cells with 250 μL of ice-cold PMPA (10 μM in PBS) solution for 5 min and rinsed again with another 250 μL of ice-cold PBS. The internalized activity was determined by incubation of the cells in 250 μL 1 M NaOH and the combination with the fraction of a subsequent wash step with 250 μL 1.0 M NaOH. Each experiment (control and blockade) was performed in triplicate. Free, surface bound and internalized activity was quantified in a γ-counter. […] Data were corrected for non-specific internalization and normalized to the specific-internalization observed for the radioiodinated reference compound.

[3] = test system: LNCaP tumor-bearing SCID mice; assay: Biodistribution at 1 h p.i.; format: in vivo
Method: FIG. 10: Biodistribution (in % ID/g) of ^18E-labeled rhPSMA tracers at 1 h p.i in LNCaP tumor-bearing SCID mice. Data are expressed as mean±SD (n=4 for rhPSMA7.1, n=5 for 7.2, n=4 for 7.3, n=5 for 7.4 and n=3 for 7-rac).

PSMA = target: T2, PSMA (Homo sapiens, UniProt Q04609); assay: Determination of IC50: PSMA affinity, competitive binding on LNCaP cells against ([125I]I-BA)KuE; conditions: LNCaP cells, [125I]IB-KuE c=0.2 nM, 1 h, 4° C.
T2 construct: endogenous in cells; host or cells: LNCaP cells
T2 sequence (Q04609 whole entry): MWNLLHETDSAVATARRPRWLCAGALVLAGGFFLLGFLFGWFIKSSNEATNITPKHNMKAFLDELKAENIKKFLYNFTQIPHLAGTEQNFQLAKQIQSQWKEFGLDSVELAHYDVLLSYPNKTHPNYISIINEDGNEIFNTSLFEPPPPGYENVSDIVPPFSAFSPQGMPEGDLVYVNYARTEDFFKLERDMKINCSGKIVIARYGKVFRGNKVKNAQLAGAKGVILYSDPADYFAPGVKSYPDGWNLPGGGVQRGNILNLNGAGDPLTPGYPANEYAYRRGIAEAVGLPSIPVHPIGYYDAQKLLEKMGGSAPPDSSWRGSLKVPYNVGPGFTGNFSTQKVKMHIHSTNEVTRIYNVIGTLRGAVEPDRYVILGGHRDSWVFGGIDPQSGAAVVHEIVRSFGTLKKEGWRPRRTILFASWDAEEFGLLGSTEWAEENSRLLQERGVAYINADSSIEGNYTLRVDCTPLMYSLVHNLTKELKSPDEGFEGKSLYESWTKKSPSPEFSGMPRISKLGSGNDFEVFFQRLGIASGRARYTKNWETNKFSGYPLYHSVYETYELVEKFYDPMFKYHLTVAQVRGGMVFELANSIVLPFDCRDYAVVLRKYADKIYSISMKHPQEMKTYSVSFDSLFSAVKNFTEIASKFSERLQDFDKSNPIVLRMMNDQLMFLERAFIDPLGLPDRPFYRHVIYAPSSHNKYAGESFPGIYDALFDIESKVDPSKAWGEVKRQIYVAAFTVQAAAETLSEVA
Method: Data are expressed as mean±SD (n=3, in 3 different experiments).
After removal of the culture medium, the cells were treated once with 500 μL of HBSS (Hank's balanced salt solution, Biochrom, Berlin, Germany, with addition of 1% bovine serum albumin (BSA)) and left 15 min on ice for equilibration in 200 μL HBSS (1% BSA). […] Quantification of bound and free radioligand was accomplished in a γ-counter.

[4] = test system: LNCaP tumor bearing mouse; assay: Radio-HPLC quantification of relative changes of each rhPSMA7 isomer after [18F]rhPSMA7-rac, 30 min p.i.; format: in vivo, mice; conditions: blood, liver, kidney, urine, 30 min p.i. of [18F][natGa]rhPSMA7-rac
Method: Analytical reversed-phase high pressure chromatography (RP-HPLC) were performed using Shimadzu gradient systems (Shimadzu Deutschland GmbH, Neufahrn, Germany), equipped with a SPD-20A UV/Vis detector (220 nm, 254 nm). […] Eluents for all HPLC operations were water (solvent A) and acetonitrile (solvent B), both containing 0.1% trifluoroacetic acid. […] The gradient for all HPLC operations was: 5% B isocratic 0-3 min, 25-35% B 3-43 min, 95-95% B 43-48 min.
In order to quantify the relative uptake of each isomer (rhPSMA-7.1-7.4), a tumor-bearing male CB-17-SCID mouse was injected with the racemic mixture of rhPSMA-7 (180-280 MBq, SA=247-349 GBq/μmol, produced at the Klinikum rechts der Isar in a fully automated procedure). […] The eluate was diluted with water and analysed by radio-HPLC. […]
Tumour and kidneys were separately homogenised in the tissue homogeniser with 1 mL of extraction buffer (850 μL 1 M HEPES pH7.4, 100 μL 20 mM PMPA and 100 μL 1M NaCl) for 30 min. […] The eluate of each organ was diluted with water and analysed by radio-HPLC.
The organs (tumour, kidney, liver) were separately homogenised in a 2 mL tube together with 3 grinding balls (3 mm diameter) and 1 mL of extraction buffer (850 μL 1 M HEPES pH7.4, 100 μL 20 mM PMPA and 100 μL 1M NaCl) for 10 min at 30 Hz. […] The eluate of each organ was diluted with water and analysed by radio-HPLC. […]

**Q.** How did the “HSA Binding” value (human serum albumin) turn out when `CC(C)(C)[Si](F)(c1ccc(C(=O)NC[C@@H](NC(=O)CC[C@H](C(=O)O)N2CCN(CC(=O)[O-])CCN(CC(=O)[O-])CCN(CC(=O)[O-])CC2)C(=O)N[C@H](CCCCNC(=O)CCC(=O)NCCC[C@@H](NC(=O)CC[C@H](NC(=O)N[C@@H](CCC(=O)O)C(=O)O)C(=O)O)C(=O)O)C(=O)O)cc1)C(C)(C)C.[Ga+3]` [rhPSMA7.1, [^19F][^natGa]D-Dap-R-DOTAGA-rhPSMA7] was run?
**A.** The value was 97.7%.

**Q.** What about the Biodistribution adrenals [1] of the same compound?
**A.** The Biodistribution adrenals was 0.003 ± 0.004 % ID/g.

**Q.** And the Biodistribution blood [1]?
**A.** The Biodistribution blood was 0.86 ± 0.40 % ID/g.

**Q.** What about the Biodistribution bone [1] of the same compound?
**A.** The Biodistribution bone was 0.33 ± 0.24 % ID/g.

**Q.** What about the Biodistribution heart [1] of the same compound?
**A.** The Biodistribution heart was 0.37 ± 0.16 % ID/g.

**Q.** What about the Biodistribution intestine [1] of the same compound?
**A.** The Biodistribution intestine was 0.66 ± 0.32 % ID/g.

**Q.** What about the Biodistribution kidneys [1] of the same compound?
**A.** Its Biodistribution kidneys is 10.9 ± 2.5 % ID/g.

**Q.** What about the Biodistribution liver [1] of the same compound?
**A.** The Biodistribution liver was 0.43 ± 0.07 % ID/g.

**Q.** What about the Biodistribution lung [1] of the same compound?
**A.** Its Biodistribution lung is 0.85 ± 0.29 % ID/g.

**Q.** What about the Biodistribution muscle [1] of the same compound?
**A.** The Biodistribution muscle was 0.17 ± 0.15 % ID/g.

**Q.** What about the Biodistribution pancreas [1] of the same compound?
**A.** Its Biodistribution pancreas is 0.16 ± 0.10 % ID/g.

**Q.** And the Biodistribution spleen [1]?
**A.** Its Biodistribution spleen is 0.21 ± 0.08 % ID/g.

**Q.** And the Biodistribution stomach [1]?
**A.** Its Biodistribution stomach is 0.97 ± 0.81 % ID/g.

**Q.** And the Biodistribution tumor ([1]; LNCaP tumor)?
**A.** Its Biodistribution tumor is 0.94 ± 0.22 % ID/g.

**Q.** And the individual internalization rates ([2]; c=0.5 nM, single measurements)?
**A.** Its individual internalization rates is 77.5 % of [^125I]IB-KuE and 61.8 % of [^125I]IB-KuE and 70.6 % of [^125I]IB-KuE and 68.0 % of [^125I]IB-KuE and 67.9 % of [^125I]IB-KuE and 71.5 % of [^125I]IB-KuE.

**Q.** What about the “internalization rate Mean” value ([2]; mean) of the same compound?
**A.** Its value is 69.55 % of [^125I]IB-KuE.

**Q.** What about the Biodistribution adrenals [3] of the same compound?
**A.** The Biodistribution adrenals was 2.0 ± 0.25 % ID/g.

**Q.** And the Biodistribution blood [3]?
**A.** The Biodistribution blood was 0.53 ± 0.13 % ID/g.

**Q.** And the Biodistribution bone [3]?
**A.** Its Biodistribution bone is 0.50 ± 0.31 % ID/g.

**Q.** What about the Biodistribution heart [3] of the same compound?
**A.** Its Biodistribution heart is 0.53 ± 0.03 % ID/g.

**Q.** What about the Biodistribution intestine [3] of the same compound?
**A.** The Biodistribution intestine was 0.30 ± 0.16 % ID/g.

**Q.** What about the Biodistribution kidneys [3] of the same compound?
**A.** The Biodistribution kidneys was 220 ± 24.8 % ID/g.

**Q.** And the Biodistribution liver [3]?
**A.** Its Biodistribution liver is 0.75 ± 0.62 % ID/g.

**Q.** What about the Biodistribution lung [3] of the same compound?
**A.** The Biodistribution lung was 1.1 ± 0.21 % ID/g.

**Q.** What about the Biodistribution muscle [3] of the same compound?
**A.** The Biodistribution muscle was 0.32 ± 0.30 % ID/g.

**Q.** What about the Biodistribution pancreas [3] of the same compound?
**A.** The Biodistribution pancreas was 0.45 ± 0.12 % ID/g.

**Q.** And the Biodistribution spleen [3]?
**A.** Its Biodistribution spleen is 20.0 ± 4.2 % ID/g.

**Q.** And the Biodistribution stomach [3]?
**A.** Its Biodistribution stomach is 0.28 ± 0.17 % ID/g.

**Q.** What about the Biodistribution tumor ([3]; LNCaP tumor) of the same compound?
**A.** Its Biodistribution tumor is 14.1 ± 4.1 % ID/g.

**Q.** What about the IC50 (PSMA; HBSS+1% BSA, single measurements, read-out: individual IC50 measurements) of the same compound?
**A.** The IC50 was 5.04 nM and 7.11 nM and 8.31 nM and 4.97 nM and 6.44 nM and 8.74 nM and 6.91 nM and 7.27 nM.

**Q.** And the IC50 (PSMA; mean of individual measurements, read-out: IC50 Mean)?
**A.** Its IC50 is 6.85 nM.

**Q.** And the “percentage change of isomer in sample with respect to its proportion in the injected solution” value [4]?
**A.** The value was “largest positive percentage change”.
